Laboratory results: the supplement of paper PMC13380429

Key:
Conditions in all cases: 72 h
Calu-3 [1] = experiment: cell viability relative to DMSO; higher = less toxic
Vero E6 [2] = experiment: as above
HepG2 [3] = experiment: as above
Caco-2 [4] = experiment: as above
U2OS [5] = experiment: as above
Calu-3 [6] = experiment: drug sensitivity score (DSS) for viability; higher = more toxic; extreme values may be limits of the assay
Vero E6 [7] = experiment: as above
HepG2 [8] = experiment: as above
Caco-2 [9] = experiment: as above
U2OS [10] = experiment: as above
Calu-3 [11] = experiment: relative viability EC50 (midpoint between 100% and the lowest measured viability); higher = less toxic
Caco-2 [12] = experiment: as above
Vero E6 [13] = experiment: as above
U2OS [14] = experiment: as above

| SMILES | cell viability (Calu-3 [1]; 1 nM) [%] | cell viability (Calu-3 [1]; 10 nM) [%] | cell viability (Calu-3 [1]; 100 nM) [%] | cell viability (Calu-3 [1]; 1000 nM) [%] | cell viability (Calu-3 [1]; 10000 nM) [%] | cell viability (Vero E6 [2]; 1 nM) [%] | cell viability (Vero E6 [2]; 10 nM) [%] | cell viability (Vero E6 [2]; 100 nM) [%] | cell viability (Vero E6 [2]; 1000 nM) [%] | cell viability (Vero E6 [2]; 10000 nM) [%] | cell viability (HepG2 [3]; 1 nM) [%] | cell viability (HepG2 [3]; 10 nM) [%] | cell viability (HepG2 [3]; 100 nM) [%] | cell viability (HepG2 [3]; 1000 nM) [%] | cell viability (HepG2 [3]; 10000 nM) [%] | cell viability (Caco-2 [4]; 1 nM) [%] | cell viability (Caco-2 [4]; 10 nM) [%] | cell viability (Caco-2 [4]; 100 nM) [%] | cell viability (Caco-2 [4]; 1000 nM) [%] | cell viability (Caco-2 [4]; 10000 nM) [%] | cell viability (U2OS [5]; 1 nM) [%] | cell viability (U2OS [5]; 10 nM) [%] | cell viability (U2OS [5]; 100 nM) [%] | cell viability (U2OS [5]; 1000 nM) [%] | cell viability (U2OS [5]; 10000 nM) [%] | drug sensitivity score (Calu-3 [6]) | drug sensitivity score (Vero E6 [7]) | drug sensitivity score (HepG2 [8]) | drug sensitivity score (Caco-2 [9]) | drug sensitivity score (U2OS [10]) | relative viability EC50 (Calu-3 [11]) [µM] | relative viability EC50 (Caco-2 [12]) [µM] | relative viability EC50 (Vero E6 [13]) [µM] | relative viability EC50 (U2OS [14]) [µM] |
| --- | --- | --- | --- | --- | --- | --- | --- | --- | --- | --- | --- | --- | --- | --- | --- | --- | --- | --- | --- | --- | --- | --- | --- | --- | --- | --- | --- | --- | --- | --- | --- | --- | --- | --- |
| CC(C)(C)c1ccc(-c2nc3c(N4CCN(Cc5ccc6nccnc6c5)CC4)cccc3[nH]2)cc1 | 104 | 104 | 111 | 106 | 92.1 | 102 | 105 | 103 | 95.6 | 64.5 | 98.3 | 96.5 | 94.4 | 97.7 | 66.9 | 109 | 91.7 | 90.3 | 100 | 59.7 | 92.8 | 101 | 93.4 | 99.2 | 54.8 | 0 | 2.4 | 1.9 | 2 | 2.4 | > 10 |  |  |  |
| CCCCC1CCC(c2nc(-c3ccncc3)no2)CC1 (stereo not given) |  |  |  |  |  |  |  |  |  |  |  |  |  |  |  | 106 | 98.8 | 104 | 98.7 | 103 |  |  |  |  |  |  |  |  | 0 |  |  | > 10 |  |  |
| COc1cc(N)c(Cl)cc1C(=O)OCCCN1CCCCC1 | 106 | 102 | 93.5 | 114 | 104 | 106 | 104 | 107 | 104 | 99.7 |  |  |  |  |  | 116 | 108 | 104 | 98.3 | 107 | 101 | 94.9 | 98.1 | 104 | 102 | 0 | 0 |  | 0 | 0 | > 10 | > 10 | > 10 | > 10 |
| CS(=O)(=O)Nc1c(O)ccc2c1CCC[C@H]2C1=NCCN1 |  |  |  |  |  |  |  |  |  |  |  |  |  |  |  | 109 | 104 | 101 | 101 | 96.7 |  |  |  |  |  |  |  |  | 0 |  |  | > 10 |  |  |
| C[C@H](N/C(=N/C#N)Nc1cccc2ncccc12)c1ccccc1 | 97 | 102 | 107 | 103 | 94.8 |  |  |  |  |  |  |  |  |  |  | 101 | 112 | 104 | 97.8 | 98.6 | 108 | 102 | 99.1 | 109 | 101 | 0 |  |  | 0 | 0 | > 10 | > 10 |  | > 10 |
| Cc1cc2c(cc1C(F)(F)F)N(C(=O)Nc1ccc(Oc3cccnc3C)nc1)CC2 | 96.4 | 98.8 | 96 | 104 | 80.6 |  |  |  |  |  |  |  |  |  |  | 97.3 | 101 | 104 | 97.1 | 91.2 | 101 | 106 | 95.8 | 105 | 95.4 | 0.4 |  |  | 0 | 0 | > 10 | > 10 |  | > 10 |
| O=C1NC(=O)/C(=C/c2ccc3nccc(-c4ccncc4)c3c2)S1 | 103 | 101 | 97.8 | 89.1 | 31.4 | 93.6 | 99.1 | 89.9 | 90.5 | 53.5 | 95.1 | 105 | 94.9 | 93 | 53.8 | 92.9 | 96.2 | 89.3 | 95.5 | 36 | 96.1 | 95.5 | 100 | 91.7 | 37.9 | 5.6 | 3.9 | 3.6 | 4.2 | 4.8 | 1.94 | 2.6 |  | 2.09 |
| O=[N+]([O-])c1cc([N+](=O)[O-])c(/C=C/c2ccc(Cl)c(Cl)c2)cc1/C=C/c1ccc(Cl)c(Cl)c1 | 100 | 98.5 | 87.2 | 97.6 | 95.9 | 103 | 105 | 101 | 102 | 97.3 |  |  |  |  |  | 91.4 | 97.2 | 89 | 102 | 86.3 | 68.7 | 102 | 94.8 | 110 | 94.1 | 0 | 0 |  | 0.1 | 0 | > 10 | > 10 | > 10 | > 10 |
| CCNCCCNCCCCNCCCNCC [1,12-Besm] | 95.6 | 110 | 110 | 102 | 86.7 | 101 | 104 | 99.4 | 97.5 | 70.5 | 104 | 104 | 106 | 86.7 | 50.5 | 103 | 86.3 | 96.5 | 91.7 | 61.8 | 102 | 96.1 | 96.6 | 89.5 | 79.1 | 0.1 | 1.7 | 4.7 | 3.2 | 1.3 | > 10 |  |  | > 10 |
| O=c1[nH]cc(F)c(=O)[nH]1 [5-fluorouracil] | 93.5 | 99.2 | 98.1 | 101 | 90.5 | 102 | 95.7 | 106 | 95.8 | 62.9 | 103 | 93 | 103 | 83.7 | 54.4 | 80 | 103 | 85.7 | 93.4 | 79.6 | 100 | 97.4 | 97.6 | 95.6 | 64 | 0 | 2.5 | 4.7 | 1.4 | 2.4 | > 10 | > 10 |  |  |
